“Also recorded” adds a separate entry of the source.

The source of these data is US20200157048A1, “(2E,4E)-5-PHENYL-PENTA-2,4-DIEN-1-ONE DERIVATIVE” (BIOWAY., INC, priority 2018, published 2020).

Assay [1] concerns Pparα mRNA. In words: qRT-PCR Pparα mRNA level in steatosis-induced Huh-7 cells. It is filed as cell-based, Human. The conditions noted are these: steatosis-induced (OA/PA) Huh-7 cells; 10 μM; 24 hours. On the procedure:
(§1) In Experimental Example 5, the Huh-7 cells were plated in 6 wells at 4×10^5 cells/mL and incubated under an atmosphere containing 5% CO2 at 37° C.
(§2) One day later, the cell density approached about 80 to 90%. The medium was changed to an FBS-free RPMI1640 medium, and incubated under an atmosphere containing 5% CO2 at 37° C. for 24 hours.
(§3) Huh-7 cells of each well, excluding control cells, were pretreated with an OA/PA mixture for one hour to induce steatosis. The control cells were pretreated with 1% FA-free BSA.
(§4) Each well was treated with 10 μM of a test compound, and then the cells were incubated for 24 hours. The control cells and OA/PA-treated cells were treated with DMSO. Cells of a positive control were treated with 10 μM of resveratrol, 10 μM of piperine, and 10 μM of YU2014. The medium was entirely aspirated, and the cells were washed with PBS (phosphate buffered saline, Corning, Manassas, Va., USA) two times.
(§5) Total RNA was extracted using a RNeasy RNA isolation kit (Qiagen, Hilden, Germany).
(§6) 10 μL of β-mercaptoethanol (Sigma-Aldrich) per 1 mL of lysis buffer was added, thereby preparing an RNA lysis buffer. […]
(§7) An RNA concentration was measured at O.D. 260 nm using a nanophotometer N60 (Implen, Munich, Germany). The concentration and purity of RNA were measured at O.D. 260/280 nm and calculated as a ratio. […]
(§8) Quantitative analyses for the genes in Table 3 were performed.
(Real-time PCR tracks product formation cycle by cycle.)

Assay [2] relates to Fas mRNA. In words: qRT-PCR Fas mRNA level in steatosis-induced Huh-7 cells. Conditions: steatosis-induced (OA/PA) Huh-7 cells; 10 μM; 24 hours. It is filed as cell-based, Human. Here is the method: as §1, §2, §3, §4, §5, §6, §7, §8
For assay [3], the system named is Srebp1c mRNA. In words: qRT-PCR Srebp1c mRNA level in steatosis-induced Huh-7 cells. It is filed as cell-based, Human. Conditions: steatosis-induced (OA/PA) Huh-7 cells; 10 μM; 24 hours. On the procedure:
as §1, §2, §3, §4, §5, §6, §7, §8

Assay [4] has as its target T1, CK2 (Homo sapiens, UniProt P68400).
T1 construct: purchased New England Biolabs (Ipswich, Mass., USA)
Nature of the assay: CK2 kinase assay (CycLex CK2 kinase assay/inhibitor screening kit). It is filed as biochemical. Conditions: 20 μM. Here is the method: All materials were provided from a CycLex CK2 kinase assay/inhibitor screening kit (Medical and Biological Laboratories CO., LTD, Nagoya, Japan).
All specimens were prepared in triplicate.
10 μL of a diluted sample was added to a 96-well plate placed on ice.
Three wells having 10 μL of a CK2α positive control (2 unit/μL) were included as a positive control in each analysis method. CK2α was purchased from New England Biolabs (Ipswich, Mass., USA).
A phosphorylation reaction was initiated by adding 90 μL of a phosphorylation reaction buffer to each well, and the 96-well plate was covered with a plate cover. The plate was incubated at 30° C. for 30 minutes. Each well was washed with a washing buffer five times, and it was confirmed whether each well was completely filled. With gentle tapping, a residual washing solution was removed.
100 μL of HRP-conjugated detection antibodies were added to each well, and the plate was covered with a plate cover. While the plate was incubated at room temperature (25 to 30° C.) for 30 minutes, the remaining HRP-conjugated detection antibodies after use were removed. Each well was washed five times, and the residual washing buffer was removed with gentle tapping. […]
Absorbance at dual wavelengths of 450/540 nm was measured for each well using Cytation 5. Data was analyzed.

T1 sequence (P68400 whole entry): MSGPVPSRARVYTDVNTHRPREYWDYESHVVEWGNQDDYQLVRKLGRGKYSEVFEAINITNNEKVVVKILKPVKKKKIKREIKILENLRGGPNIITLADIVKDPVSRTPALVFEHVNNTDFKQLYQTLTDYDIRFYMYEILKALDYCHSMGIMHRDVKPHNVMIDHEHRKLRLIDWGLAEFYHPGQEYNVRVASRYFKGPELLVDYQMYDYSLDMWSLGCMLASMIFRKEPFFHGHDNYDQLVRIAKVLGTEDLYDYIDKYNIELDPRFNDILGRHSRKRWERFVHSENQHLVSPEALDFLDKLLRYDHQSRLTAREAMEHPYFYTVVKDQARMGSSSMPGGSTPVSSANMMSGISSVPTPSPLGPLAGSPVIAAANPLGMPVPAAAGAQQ
T1 sequence (P67870 whole entry partner): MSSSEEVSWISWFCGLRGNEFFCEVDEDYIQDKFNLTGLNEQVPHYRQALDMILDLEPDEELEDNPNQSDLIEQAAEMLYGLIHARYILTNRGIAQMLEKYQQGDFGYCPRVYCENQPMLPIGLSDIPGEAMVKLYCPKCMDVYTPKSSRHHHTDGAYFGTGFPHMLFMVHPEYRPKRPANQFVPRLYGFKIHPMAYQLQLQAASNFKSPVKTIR

Turning to `CSc1ccc(/C=C/C=C/C(=O)N2CCCCC2)cc1` [YU2014, (2E,4E)-5-(4-(methylthio)phenyl)-1-(piperidine-1-yl)penta-2,4-dien-1-one], in assay [1], the “Pparα mRNA level (FIG. 10)” value is on record as “hardly increased; also recorded: no effect”. Besides, the “Fas mRNA level (FIG. 13)” value in assay [2] is listed as “reduce”. In addition, in assay [3], the “Srebp1c mRNA level (FIG. 14)” value is given as “reduce”. Also, the “CK2 activity (FIG. 21)” value in assay [4] was “did not have a CK2 activity reducing effect”.
